This note sets out measurements from article PMC9298352, “Design, Synthesis and Structural Analysis of Glucocerebrosidase Imaging Agents” (Chemistry (Weinheim an Der Bergstrasse, Germany), 2021).

A word on the IC50: it is the concentration that gives 50% inhibition.

SMILES strings stand for the structures. Substitutions are numbered along the chain they refer to. Where two headings read alike, the source gives them in different places.

For assay [1], the target named is T1, recombinant human GBA (rhGBA, Imiglucerase) (Homo sapiens, UniProt P04062, R534H).
T1 construct: purchased Sanofi Genzyme (Cambridge, MA, USA)
T1 sequence (P04062 40-536 R534H): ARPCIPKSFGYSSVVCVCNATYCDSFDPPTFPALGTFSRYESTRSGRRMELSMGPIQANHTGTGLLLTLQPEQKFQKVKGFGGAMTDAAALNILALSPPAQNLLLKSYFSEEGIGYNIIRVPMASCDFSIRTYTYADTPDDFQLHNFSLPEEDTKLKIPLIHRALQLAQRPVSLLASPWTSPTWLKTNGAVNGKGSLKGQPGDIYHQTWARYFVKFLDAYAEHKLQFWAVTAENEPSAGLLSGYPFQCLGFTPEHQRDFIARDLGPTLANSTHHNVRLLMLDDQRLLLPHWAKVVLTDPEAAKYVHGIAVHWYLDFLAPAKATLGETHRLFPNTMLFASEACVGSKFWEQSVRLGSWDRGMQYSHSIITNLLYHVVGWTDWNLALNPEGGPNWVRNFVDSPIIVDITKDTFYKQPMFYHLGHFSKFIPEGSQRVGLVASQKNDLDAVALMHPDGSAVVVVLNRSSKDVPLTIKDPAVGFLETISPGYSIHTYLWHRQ
The experiment in a line: In vitro apparent IC50, fluorogenic substrate assay on rhGBA. The format is biochemical. How it is done: All assays were performed in duplicate sets, each with 3 technical replicates at each inhibitor concentration. DMSO concentration was kept at 0.5 %–1 % (v/v) in all assays during incubation with compounds. In vitro apparent IC50 values were calculated by fitting data with [inhibitor] vs. response‐various slope (four parameters) function using Graphpad Prism 7.0 software. Average values and standard deviations were calculated from the two sets.

The next assay concerns the target T2, rhGBA (Homo sapiens, UniProt P04062).
T2 construct: made in house; host or cells: insect-baculovirus expression vector system (BEVS)
T2 sequence (P04062 40-536): T1 sequence (P04062 40-536 R534H) with H495R
As to the kind of experiment: rhGBA titration with constant ABP 6 and ABP 9 (gel-based labelling). The format is biochemical. The following applies: ABP 150 nM, rhGBA 500–0.01 nM, 37 °C, 30 mins. How it is done:
Maximum‐likelihood/σA weighted (2Fo–Fc) electron density map contoured to 1.0 σ (a=1.31 e^−/Å^3). […] Fluorescently labelled rhGBA visualized by Cy5 fluorescent readout. D=denatured protein sample.
rhGBA produced in BEVS[58] was prepared at 500, 250, 100, 50, 10, 1, 0.1 and 0.01 nM in 150 mM McIlvaine buffer pH 5.2 (supplemented with 0.1 % (v/v) Triton X‐100 and 0.2 % (w/v) sodium taurocholate). […] The samples were denatured with Laemmli (x3) sample buffer by heating at 95 °C for 5 minutes and resolved by electrophoresis in 10 % SDS‐PAGE gels, running at 200 V for ∼50 minutes. Wet slab gels were scanned on fluorescence using an Amersham Typhoon 5 Imager (GE Healthcare) with λEX 635 nm; λEM >665 nm.

On to `CCCCCCCCN1[C@@H]2[C@H](Cn3cc(CNC(=O)CCCCC[N+]4=C(/C=C/C=C/C=C5/N(C)c6ccccc6C5(C)C)C(C)(C)c5ccccc54)nn3)[C@@H](O)[C@H](O)[C@@H](O)[C@@H]21` (stereo partly drawn) [ABP 6], for which the half-maximal inhibitory concentration (IC50) in assay [1] (3 hr pre-incubation, read-out: apparent IC50 value, GBA) was 0.053 µM; in assay [1] (apparent IC50, 3 h pre-incubation, 4-methylumbelliferyl-β-glucoside substrate, ± SD from technical duplicates, read-out: In vitro rhGBA IC50), 0.0531 ± 0.00265 µM. Besides, on rhGBA, the “lowest rhGBA concentration labelled” value came to 1 nM.
